Assay results taken from ChEMBL document CHEMBL1201862, “PubChem BioAssay data set” (2004).
Several values for one entry are separate records, joined by “and”; a condition that tells them apart may be missing. Equal entries are not always repeated. One block for each compound: values may come before it. Activity calls are given as the source filed them.

Assays:
[1] = target: T1, Scavenger receptor class B member 1 (Mus musculus, UniProt Q61009); experiment: inhibitors of SR-BI dependent HDL uptake, dose response, ldlA[mSR-BI] CHO cells, fluorescence plate reader, dry powder, set 9 (AID 623880); type: functional, cell-based
T1 sequence (Q61009 whole entry): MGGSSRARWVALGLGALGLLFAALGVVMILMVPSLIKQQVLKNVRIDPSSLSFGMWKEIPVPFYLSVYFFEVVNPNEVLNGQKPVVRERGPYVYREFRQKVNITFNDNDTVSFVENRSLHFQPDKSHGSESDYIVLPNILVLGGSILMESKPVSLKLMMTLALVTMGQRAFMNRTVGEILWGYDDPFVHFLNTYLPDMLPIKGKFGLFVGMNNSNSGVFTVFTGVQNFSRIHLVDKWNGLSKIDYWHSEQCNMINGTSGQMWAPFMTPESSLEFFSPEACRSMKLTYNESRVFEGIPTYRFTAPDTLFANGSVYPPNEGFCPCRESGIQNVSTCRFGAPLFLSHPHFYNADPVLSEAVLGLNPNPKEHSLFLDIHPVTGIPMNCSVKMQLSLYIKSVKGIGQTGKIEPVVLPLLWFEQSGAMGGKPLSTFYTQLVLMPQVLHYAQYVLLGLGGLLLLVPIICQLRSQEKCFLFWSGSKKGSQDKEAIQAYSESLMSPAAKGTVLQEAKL

[2] = target: T1, Scavenger receptor class B member 1; experiment: inhibitors of SR-BI-mediated HDL uptake, dose response, cell-based, ldlA[mSR-BI] CHO, DiI fluorescence, dry powder, set 10 (AID 624029); type: functional
[3] = miR-122 activators in hepatoma reporter cells, dose response, cell-based, Huh7 psiCHECK-miR122, Renilla luciferase, cherry-picked (AID 651956); type: functional;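 further: huh7 hepatoma cells stably carrying a psiCHECK-2 miR-122 sensor plasmid; renilla luciferase signal reporting endogenous miR-122 activity after 48 h compound exposure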
cells = type: functional, cell-based
[4] = target: T2, Nuclear receptor subfamily 0 group B member 1 (Homo sapiens, UniProt P51843); type: functional, cell-based;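 further: HEK293T cells transfected with SF-1 and DAX-1 plus StAR promoter luciferase reporter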
T2 sequence (P51843 whole entry): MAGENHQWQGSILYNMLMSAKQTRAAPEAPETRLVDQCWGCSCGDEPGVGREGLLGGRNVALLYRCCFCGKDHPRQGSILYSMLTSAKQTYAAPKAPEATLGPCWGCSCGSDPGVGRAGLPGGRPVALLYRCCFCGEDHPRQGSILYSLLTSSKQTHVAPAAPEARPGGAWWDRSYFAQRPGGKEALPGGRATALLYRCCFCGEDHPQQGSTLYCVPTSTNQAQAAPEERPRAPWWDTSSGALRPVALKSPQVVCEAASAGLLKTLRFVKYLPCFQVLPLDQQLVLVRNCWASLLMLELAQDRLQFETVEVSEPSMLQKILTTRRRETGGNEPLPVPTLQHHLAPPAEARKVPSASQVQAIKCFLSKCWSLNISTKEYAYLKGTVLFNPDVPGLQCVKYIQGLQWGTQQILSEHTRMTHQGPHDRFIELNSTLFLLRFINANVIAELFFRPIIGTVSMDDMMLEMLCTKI

[5] = target: T3, Low molecular weight phosphotyrosine protein phosphatase (Homo sapiens, UniProt P24666); type: functional; details: read-out: IC50_Mean;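 further: Dose-response confirmation assay measuring inhibition of LMPTP enzyme activity by fluorescence intensity read-out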
T3 sequence (P24666 whole entry): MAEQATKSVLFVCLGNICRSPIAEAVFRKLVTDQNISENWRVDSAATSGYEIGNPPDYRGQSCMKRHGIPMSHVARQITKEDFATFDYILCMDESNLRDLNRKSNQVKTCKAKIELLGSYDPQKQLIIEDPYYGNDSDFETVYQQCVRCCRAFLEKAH

[6] = target: T4, Probable nicotinate-nucleotide adenylyltransferase (Staphylococcus aureus (strain N315), UniProt P65502); type: functional, Staphylococcus aureus subsp. aureus N315;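 on IC50 Mean: confirmatory dose-response retesting of NadD inhibitor hits first found in an ultra-high-throughput screen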
[7] = target: T4, Probable nicotinate-nucleotide adenylyltransferase; type: functional, Staphylococcus aureus subsp. aureus N315; details: read-out: IC50_Mean
[8] = target: T5, Rac GTPase-activating protein 1 (Homo sapiens, UniProt Q9H0H5); experiment: MgcRacGAP GTPase-activating activity inhibitors, confirmation, biochemical, ADP Hunter fluorescence, primary and confirmatory (AID 624330); type: functional
T5 sequence (Q9H0H5 whole entry): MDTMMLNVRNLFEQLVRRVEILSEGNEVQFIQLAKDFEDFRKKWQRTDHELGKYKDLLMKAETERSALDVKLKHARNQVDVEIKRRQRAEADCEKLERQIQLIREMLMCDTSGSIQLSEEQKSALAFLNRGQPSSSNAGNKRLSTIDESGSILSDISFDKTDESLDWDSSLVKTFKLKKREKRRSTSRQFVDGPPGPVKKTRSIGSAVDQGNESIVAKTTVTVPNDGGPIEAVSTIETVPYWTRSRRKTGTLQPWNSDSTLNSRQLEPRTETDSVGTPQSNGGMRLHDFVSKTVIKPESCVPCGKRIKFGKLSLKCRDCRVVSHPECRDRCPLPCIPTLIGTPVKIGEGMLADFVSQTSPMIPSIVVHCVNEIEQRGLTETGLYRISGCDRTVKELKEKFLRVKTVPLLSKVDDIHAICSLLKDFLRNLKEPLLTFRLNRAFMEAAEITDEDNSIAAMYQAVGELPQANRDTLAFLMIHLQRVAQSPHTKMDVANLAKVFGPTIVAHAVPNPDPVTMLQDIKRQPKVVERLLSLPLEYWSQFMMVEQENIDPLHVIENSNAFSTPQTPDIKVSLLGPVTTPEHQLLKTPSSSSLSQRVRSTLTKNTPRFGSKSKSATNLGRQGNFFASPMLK

[9] = HeLa cell cytotoxicity, dose response, cytotoxicity control for MgcRacGAP inhibitor project (AID 624300); type: functional
[10] = target: Hepatocyte nuclear factor 4-alpha (Homo sapiens, UniProt P41235); type: functional, cell-based;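 further: biochemical luminescence-based dose-response counterscreen measuring inhibition of HNF4 dimerization, run alongside a screen for blockers of ABHD5–perilipin-5 interaction; split luciferase complementation of HNF4 fusion proteins in cell lysate measuring dimerization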
Sequence of Hepatocyte nuclear factor 4-alpha (P41235 whole entry, the tested form may be a part): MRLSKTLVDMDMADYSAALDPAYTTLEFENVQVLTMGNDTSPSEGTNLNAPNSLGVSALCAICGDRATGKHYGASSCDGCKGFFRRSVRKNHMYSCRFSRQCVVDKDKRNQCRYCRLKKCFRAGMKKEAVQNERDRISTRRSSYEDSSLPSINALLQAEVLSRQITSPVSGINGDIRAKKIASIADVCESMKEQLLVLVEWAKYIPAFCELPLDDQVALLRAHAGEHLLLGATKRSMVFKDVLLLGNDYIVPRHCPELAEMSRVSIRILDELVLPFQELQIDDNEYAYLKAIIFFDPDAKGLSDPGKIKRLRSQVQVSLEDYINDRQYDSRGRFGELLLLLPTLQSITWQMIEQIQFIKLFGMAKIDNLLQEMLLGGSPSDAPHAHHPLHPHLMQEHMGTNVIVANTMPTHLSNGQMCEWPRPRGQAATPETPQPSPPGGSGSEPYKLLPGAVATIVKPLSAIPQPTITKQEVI

Interleukin-8 [11] = target: T6, Interleukin-8 (Homo sapiens, UniProt P10145); experiment: Dose Response confirmation of uHTS small molecule hits for cystic fibrosis induced NFkb Inhibitors in a TNFa-induced IL8 counterscreen.; type: functional; details: read-out: IC50_Mean
T6 sequence (P10145 whole entry): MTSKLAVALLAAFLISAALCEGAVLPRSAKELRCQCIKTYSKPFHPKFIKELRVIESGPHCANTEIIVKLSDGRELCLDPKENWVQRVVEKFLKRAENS

HEK293 = experiment: inhibitors of LMP1-driven NF-kB reporter, dose response, cell-based, HEK293, luciferase, cherry-pick (AID 588343); type: functional; details: Homo sapiens
Interleukin-8 [12] = target: T6, Interleukin-8; experiment: Dose Response confirmation of uHTS small molecule hits for cystic fibrosis induced NFkb Inhibitors in a PAF-induced IL8 counterscreen.; type: functional; details: read-out: IC50_Mean

AC50 [1]: 0.0589 µM (active)
AC50 [2]: 163 nM (active) and 121 nM (active)
Compound: CC(C)NC(=O)Nc1ccc2c(c1)C(=O)N([C@H](C)CO)C[C@@H](C)[C@H](CN(C)S(=O)(=O)c1ccc(Cl)cc1)O2

Compound: CCOc1ccc(NC(=S)N(CCCN2CCCC2)Cc2cccn2Cc2ccc(Cl)cc2)cc1
AC50 [3]: 46.1 µM (active)

Compound: Clc1ccc(-c2nc3ccc(Br)cn3c2Cc2ccsc2)cc1
IC50 (cells): > 67.5 µM (inactive)
IC50 [4]: > 67.5 µM (inactive)

IC50 [5]: 80 µM (inactive)
IC50 [6]: 19.5 µM (active)
IC50 [7]: 41.2 µM (active)
Compound: COc1ccccc1/C=C/C=N/NC(=O)c1cc(-c2ccco2)[nH]n1

IC50 [8]: 133 µM (active)
Compound: CCC(CC)NCc1ccc2c(c1)c1ccccc1n2CC
CC50 [9]: 100 µM (active)

IC50 [10]: 2.23 µM (active)
Compound: O=C(NC1CCCCC1)C(c1ccnc2ccccc12)n1c(=O)c(-c2ccco2)nc2ccccc21 (centres undefined)

Compound: N#CC(C#N)c1ccnc2ccccc12
IC50 (Interleukin-8 [11]): 40.4 µM (inactive)
AC50 (HEK293): 11.5 µM (active)
IC50 (Interleukin-8 [12]): > 79 µM (inactive)
